# Tests used:
# [1] = Antibacterial activity against Enterobacter cloacae 1321E; type: functional
# Escherichia coli [2] = assay: microbe, parasite or virus in culture; type: functional
# Description: Antibacterial activity against Escherichia coli 1507E
# Pseudomonas aeruginosa [3] = assay: microbe, parasite or virus in culture; type: functional
# Description: Compound was evaluated for antibacterial activity against Pseudomonas aeruginosa 1592E
# Pseudomonas aeruginosa [4] = assay: microbe, parasite or virus in culture; type: functional; remark: listed apart in the source
# Description: Antibacterial activity against Pseudomonas aeruginosa 1771M
# Salmonella typhimurium = assay: Antibacterial activity against Salmonella Typhimurium; type: functional, Salmonella enterica subsp. enterica serovar Typhimurium; details: Salmonella enterica
# Staphylococcus aureus = assay: Antibacterial activity against Staphylococcus aureus SG 511; type: functional
# Streptococcus pyogenes [5] = assay: Antibacterial activity against Streptococcus pyogenes 77A; type: functional
# Enterococcus faecium = assay: Antibacterial activity against Streptococcus faecium MD 8b; type: functional
# Klebsiella aerogenes = assay: Antibacterial activity against Klebsiella aerogenes 1522E; type: functional
# [6] = target: T1, Dipeptidase 1 (Sus scrofa) (UniProt P22412); assay: Compound was evaluated for relative rate of hydrolysis to imipenem by partially purified porcine renal Dehydropeptidase-1; set-up: scale not given: the % may be the effect or the level left
# T1 sequence (whole entry): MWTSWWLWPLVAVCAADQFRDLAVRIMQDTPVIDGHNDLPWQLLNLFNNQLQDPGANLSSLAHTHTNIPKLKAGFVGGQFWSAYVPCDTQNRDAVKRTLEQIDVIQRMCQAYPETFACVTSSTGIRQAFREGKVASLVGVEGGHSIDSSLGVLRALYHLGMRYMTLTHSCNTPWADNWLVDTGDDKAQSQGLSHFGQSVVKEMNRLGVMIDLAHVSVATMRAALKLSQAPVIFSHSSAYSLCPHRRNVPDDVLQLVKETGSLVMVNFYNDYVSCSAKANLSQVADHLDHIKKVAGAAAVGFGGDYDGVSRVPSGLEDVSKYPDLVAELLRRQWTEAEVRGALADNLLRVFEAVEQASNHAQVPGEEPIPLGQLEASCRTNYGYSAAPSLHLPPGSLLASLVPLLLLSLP
# [7] = Time taken by the compound to reach maximum concentration.; type: ADME
# Escherichia coli [8] = assay: Compound was tested for in vivo protective activity against Escherichia coli 078 at a single subcutaneous administration in mice.; type: functional; details: sc, read-out: PD50
# Pseudomonas aeruginosa [9] = assay: Compound was tested for in vivo protective activity against Pseudomonas aeruginosa 1771M at a single subcutaneous administration in mice.; type: functional; details: sc, read-out: PD50
# Streptococcus pyogenes [10] = assay: Compound was tested for in vivo protective activity against Streptococcus pyogenes 77A at a single subcutaneous administration in mice.; type: functional; details: sc, read-out: PD50
MIC [1],MIC (Escherichia coli [2]),MIC (Pseudomonas aeruginosa [3]),MIC (Pseudomonas aeruginosa [4]),MIC (Salmonella typhimurium),MIC (Staphylococcus aureus),MIC (Streptococcus pyogenes [5]),MIC (Enterococcus faecium),MIC (Klebsiella aerogenes),SMILES,Stability [6],Tmax [7],ED50 (Escherichia coli [8]),ED50 (Pseudomonas aeruginosa [9]),ED50 (Streptococcus pyogenes [10])
0.025 µg/mL,0.025 µg/mL,6.25 µg/mL,0.781 µg/mL,0.049 µg/mL,0.195 µg/mL,0.007 µg/mL,12.5 µg/mL,0.049 µg/mL,C[C@@H](O)[C@H]1C(=O)N2C(C(=O)O)=C(S[C@@H]3CN[C@H](C(=O)NCCC(=O)N4CCCC4)C3)[C@H](C)[C@H]12,–,–,–,–,–
0.025 µg/mL,0.025 µg/mL,1.56 µg/mL,0.781 µg/mL,0.049 µg/mL,0.195 µg/mL,0.007 µg/mL,6.25 µg/mL,0.049 µg/mL,C=CCNS(=O)(=O)CCNC(=O)[C@@H]1C[C@H](SC2=C(C(=O)O)N3C(=O)[C@H]([C@@H](C)O)[C@H]3[C@H]2C)CN1,–,–,–,–,–
0.025 µg/mL,0.025 µg/mL,0.391 µg/mL,0.195 µg/mL,0.049 µg/mL,0.195 µg/mL,0.007 µg/mL,12.5 µg/mL,0.049 µg/mL,C[C@@H](O)[C@H]1C(=O)N2C(C(=O)O)=C(S[C@@H]3CN[C@H](C(=O)NCCC(N)=O)C3)[C@H](C)[C@H]12,2600%,–,–,–,–
0.025 µg/mL,0.025 µg/mL,1.56 µg/mL,0.195 µg/mL,0.049 µg/mL,0.195 µg/mL,0.007 µg/mL,12.5 µg/mL,0.049 µg/mL,C[C@@H](O)[C@H]1C(=O)N2C(C(=O)O)=C(S[C@@H]3CN[C@H](C(=O)NCCS(=O)(=O)N(C)C)C3)[C@H](C)[C@H]12,–,–,–,–,–

# Second part, the molecule before the results:
SMILES,MIC [1],MIC (Escherichia coli [2]),MIC (Pseudomonas aeruginosa [3]),MIC (Pseudomonas aeruginosa [4]),MIC (Salmonella typhimurium),MIC (Staphylococcus aureus),MIC (Streptococcus pyogenes [5]),MIC (Enterococcus faecium),MIC (Klebsiella aerogenes),Stability [6],Tmax [7],ED50 (Escherichia coli [8]),ED50 (Pseudomonas aeruginosa [9]),ED50 (Streptococcus pyogenes [10])
CNS(=O)(=O)CCNC(=O)[C@@H]1C[C@H](SC2=C(C(=O)O)N3C(=O)[C@H]([C@@H](C)O)[C@H]3[C@H]2C)CN1,0.025 µg/mL,0.025 µg/mL,0.391 µg/mL,0.369 µg/mL,0.025 µg/mL,0.195 µg/mL,0.013 µg/mL,12.5 µg/mL,0.049 µg/mL,–,–,–,–,–
C[C@@H](O)[C@H]1C(=O)N2C(C(=O)O)=C(S[C@@H]3CN[C@H](C(=O)NCCS(=O)(=O)N4CCOCC4)C3)[C@H](C)[C@H]12,0.049 µg/mL,0.049 µg/mL,50 µg/mL,1.56 µg/mL,0.098 µg/mL,0.391 µg/mL,0.013 µg/mL,12.5 µg/mL,0.098 µg/mL,–,–,–,–,–
C[C@@H](O)[C@H]1C(=O)N2C(C(=O)O)=C(S[C@@H]3CN[C@H](C(=O)NCCS(=O)(=O)N4CCCC4)C3)[C@H](C)[C@H]12,0.013 µg/mL,0.013 µg/mL,6.25 µg/mL,0.391 µg/mL,0.025 µg/mL,0.098 µg/mL,0.004 µg/mL,6.25 µg/mL,0.025 µg/mL,–,–,–,–,–
C[C@@H](O)[C@H]1C(=O)N2C(C(=O)O)=C(S[C@@H]3CN[C@H](C(=O)N(C)C)C3)[C@H](C)[C@H]12 [MEROPENEM],0.025 µg/mL,0.025 µg/mL,0.195 µg/mL,0.049 µg/mL,0.025 µg/mL,0.098 µg/mL,0.002 µg/mL,12.5 µg/mL,0.049 µg/mL,3200%,12.6 min,1.24 mg/kg,1.76 mg/kg,7.16 mg/kg

# Source: ChEMBL document CHEMBL1130853, “Synthesis and biological properties of new 1 beta-methylcarbapenems” (Bioorg Med Chem Lett, 1998)
